Patent US20200376138A1, “LIPID NANO PARTICLE COMPLEX COMPRISING APTIDE FUSED WITH CELL PENETRATING MATERIALS AND USE SAME” (Korea Advanced Institute of Science and Technology, priority 2019, published 2020)
Ends that are not written are not given here.

Legend:
[1] = system: psoriasis animal model; assay: Inhibitory effect on inflammation in imiquimod-induced psoriasis animal model; assay type: in vivo, mouse; conditions: day 7
Method: The nanoparticle complex prepared in Example 3 was applied on the skin of a psoriasis animal model and the inhibitory effect of the complex on inflammation caused by psoriasis was investigated. First, the hair of the ear of the mouse was removed, and imiquimod was continuously treated at the concentration of 20 mg/cm^2 for 6 days from the next day to induce psoriasis. On the other hand, on the 2nd to 6th day of the treatment of imiquimod, the nanoparticle complex of Example 3 or Comparative Example 3 was applied in a total amount of 100 μg, 50 μg per time. On the day when imiquimod and the treatment drug were treated together, the treatment drug was applied 4 hours before and after the application of imiquimod to prevent the interaction between the drugs. At this time, the groups treated with Vaseline and DW were used as the negative control, and the group applied with clobetasol propionate (CLQ) at the concentration of 20 mg/cm^2 was used as the positive control. The application of the nanoparticle complex was completed by day 6, and the inhibitory effect on inflammation was confirmed using the animal model on day 7 (FIG. 14). Particularly, the inhibitory effect on inflammation was confirmed by measuring the thickness of the ear of the animal model, the punch biopsy weight, tissue H&E test, ELISA after tissue crushing, and the extracted spleen weight. […]

[2] = biological target: STAT3 protein (Homo sapiens, UniProt P40763); assay: Binding of the aptide to STAT3 protein; conditions: read-out: affinity of binding to STAT3 protein
STAT3 protein, sequence (P40763 whole entry, species assumed, the tested form may be a part): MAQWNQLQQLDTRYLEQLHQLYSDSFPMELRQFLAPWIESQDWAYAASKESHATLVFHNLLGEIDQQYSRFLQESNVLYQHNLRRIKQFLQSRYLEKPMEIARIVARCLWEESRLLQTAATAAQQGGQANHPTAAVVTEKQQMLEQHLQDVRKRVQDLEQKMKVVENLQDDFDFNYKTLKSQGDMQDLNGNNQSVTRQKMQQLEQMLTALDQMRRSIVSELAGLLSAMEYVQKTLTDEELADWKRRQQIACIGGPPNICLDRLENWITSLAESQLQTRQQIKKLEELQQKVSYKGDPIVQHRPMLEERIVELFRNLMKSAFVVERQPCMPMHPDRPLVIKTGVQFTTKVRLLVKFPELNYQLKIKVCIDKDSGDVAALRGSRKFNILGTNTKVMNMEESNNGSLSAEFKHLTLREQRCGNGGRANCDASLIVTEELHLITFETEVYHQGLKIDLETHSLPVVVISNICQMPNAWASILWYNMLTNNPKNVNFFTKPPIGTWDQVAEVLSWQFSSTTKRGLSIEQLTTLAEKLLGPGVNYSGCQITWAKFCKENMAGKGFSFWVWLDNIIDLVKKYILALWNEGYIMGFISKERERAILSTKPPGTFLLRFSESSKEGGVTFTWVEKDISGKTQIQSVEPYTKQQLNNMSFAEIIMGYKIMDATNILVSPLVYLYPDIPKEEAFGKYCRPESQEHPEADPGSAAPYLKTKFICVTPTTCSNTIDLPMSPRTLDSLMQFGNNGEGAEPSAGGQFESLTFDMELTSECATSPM
Method: The aptide according to the present invention can be an aptide that specifically binds to STAT3 (signal transducer and activator of transcription 3) protein, and can specifically be composed of the amino acid sequence represented by SEQ. ID. NO: 2. the aptide for STAT3 protein is stable with a size of about 5 kDa, and can bind to STAT3 protein with a high affinity of 200 nM. The aptide for STAT3 protein can inhibit the activation of STAT3 protein by binding to SH2 domain of STAT3 protein and suppressing the phosphorylation. This mechanism may have less effect on an inaccurate target than a conventional JAK inhibitor that inhibits the activation of STAT3 protein using the JAK inhibitory mechanism.

[3] = system: MLE12 cells; assay: Epithelial-to-myofibroblast differentiation, vimentin FACS after TGF-β; assay type: cell-based
[4] = system: MLE12 lung epithelial cells; assay: Lung epithelial cell uptake (confocal, FACS); assay type: cell-based; conditions: 20 μM, 4 h
Method: In vitro cell uptake of FITC-APTstat3-9R and FITC-APTstat3-9R-DLNPs was determined by confocal microscopy imaging and FACS analysis. For confocal imaging, MLE12 cells were seeded on sterile cover glass in 12-well plate at 5×10^5 cells/well density followed by overnight incubation. The cells were treated with PBS, FITC-APTstat3-9R (20 μM), or FITC-APTstat3-9R-DLNPs (20 μM) for 4 h. The samples were washed twice with 1×PBS to discard free aptides. Subsequent sample preparation and analysis were described previously in in vitro macrophage polarization analysis section. For FACS experiment, MLE 12 cells were seeded in a 6-well plate at 3×10^5 cells/well density and incubated overnight for stabilization. The samples were treated with PBS, FITC-APTstat3-9R (20 μM), or FITC-APTstat3-9R-DLNPs (20 μM) for 4 h, washed, and collected using trypsin. The following steps were previously detailed in in vitro macrophage polarization analysis.

[5] = system: RAW264.7 cells; assay: M2 polarization of IL-10 stimulated macrophages, CD163 FACS; assay type: cell-based, mouse; conditions: 20 μM, IL-10 stimulation 48 h
Method: To perform FACS analysis, mouse macrophage cell line (RAW264.7) was seeded in a 6-well plate at 2×10^5 cells/well density and incubated overnight for stabilization. In order to induce M2-type polarization, the samples were stimulated with IL-10 for 48 h in a 37° C.-maintained, 5% CO2 incubator. PBS, APTscr-9R(20 μM), and APTstat3-9R(20 μM) were simultaneously accordingly added for co-treatment. After the incubation, the specimens were collected and incubated for 30 min with 10% BSA in PBS to block non-specific binding of antibodies. After blocking, the samples were washed with three changes of 1×PBS for 5 min each. The collected specimens were resuspended in a 1 mL of separation buffer. The cells were collected in the filter tubes with strainer ([…]). After buffer removal, direct immunostaining was performed using phycoerythrin-cojugated CD163 monoclonal primary antibody (Invitrogen, Waltham, Mass., USA) at […] with 90 min incubation at 4° C. Upon the incubation, the cells were once again washed with three changes of 1×PBS for 5 min. […] The samples (20,000 cells) were analyzed using a LSR Fortessa™ high-performance multi-parameter flow cytometer (BD Bioscience, San Jose, Calif., USA) processed with FlowJo software (Tree Star Inc., San Carlos, Calif., USA).

## CCC(=O)O[C@]1(C(=O)CCl)[C@@H](C)C[C@H]2[C@@H]3CCC4=CC(=O)C=C[C@]4(C)[C@@]3(F)[C@@H](O)C[C@@]21C [CLQ, clobetasol propionate]
[1]
  size and weight of the spleen: shrivelled

## HGFQWPGSWTWENGKWTWKGAYQFLK [aptide for STAT3 protein]
[2]
  Kd: 200 nM

## APTscr-9R: control aptide, SEQ ID NO:9; b173 calls it a lipid nanoparticle complex prepared as Example 3 with this aptide (HASDRNGSWTWENGKWTWKGLHEQSD; also: part of a lipid nanoparticle complex) [reference compound]
[3]
  vimentin marker level after stimulation: vastly increased

## HGFQWPGSWTWENGKWTWKGAYQFLKGGGGSRRRRRRRRR (Aptide against STAT3 fused with nona-arginine) [APTstat3-9R]
[4]
  uptake into MLE 12 lung epithelial cells (confocal images): uptaken
[3]
  vimentin marker level after stimulation: fairly decreased
[3]; TGF-β stimulation
  reduction of vimentin level compared to PBS treated group: approximately 29%
[5]
  increase in CD163 level (M2 macrophage specific marker): not upregulated
